Patent publication US11174245B2, “Benzimidazole compounds and derivatives as EGFR inhibitors” (Boehringer Ingelheim International GmbH, priority 2018, dated 2021)
Where two headings read alike, the source gives them in different places.

Assays:
[1] = tested on: Ba/F3 cells with the wildtype EGFR; assay: Ba/F3 proliferation assay (CellTiter-Glo viability), wildtype EGFR with EGF; type: cell-based, murine; conditions: Mus musculus, BaF3, Ba/F3 EGFR wt
Procedure: (§1) Ba/F3 Cell Model Generation and Proliferation Assays
(§2) Plasmids containing EGFR mutants were obtained from GeneScript. To generate EGFR-dependent […] were transduced with retroviruses containing vectors that harbor EGFR isoforms. Platinum-E cells (Cell Biolabs) were used for retrovirus packaging. Retrovirus was added to Ba/F3 cells. To ensure infection, 4 μg/mL polybrene was added and cells were spinfected. Infection efficiency was confirmed by measuring GFP-positive cells using a cell analyzer. Cells with an infection efficiency of 10% to 20% were further cultivated and puromycin selection with 1 μg/mL was initiated. As a control, parental Ba/F3 cells were used to show selection status. Selection was considered successful when parental Ba/F3 cells cultures died. To evaluate the transforming potential of EGFR mutations, the growth medium was no longer supplemented with IL-3. Ba/F3 cells harboring the empty vector were used as a control. A switch from IL-3 to EGF was performed for Ba/F3 cells with the wildtype EGFR known for its dependency on EGF ligand. Approximately ten days before conducting the experiments, puromycin was left out. For proliferation assays (data in table 13), Ba/F3 cells were seeded into 96-well plates at 5×10^3 cells/100 μL in growth media. Compounds were added by using a HP D3000 Digital Dispenser. All treatments were performed in technical triplicates. Treated cells were incubated for 72 h at 37° C. with 5% CO2. CellTiter-Glo® Luminescent Cell Viability Assay (Promega) was performed and chemoluminescence was measured by using the multilabel Plate Reader VICTOR X4. The raw data were imported into and analyzed with the Boehringer Ingelheim proprietary software MegaLab (curve fitting based on the program PRISM, GraphPad Inc.).

[2] = tested on: Ba/F3 cells EGFR-indep. + IL-3; assay: Ba/F3 proliferation assay (CellTiter-Glo viability), EGFR-independent cells with IL-3; type: cell-based, murine; conditions: Mus musculus, BaF3, Ba/F3 EGFR-independent + IL-3
Procedure: as §2

[3] = molecular target: EGFR (mutated) 695-1022, T790M, C797S, L858R (Homo sapiens (Human), UniProt P00533, C797S/L858R/T790M); assay: Biochemical EGFR inhibition assay (TR-FRET, poly-GT substrate), EGFR T790M C797S L858R
Method in brief: (§3)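 Phosphorylation of tagged poly-GT substrate by EGFR forms measured at 5 μM and 100 μM ATP (final). Top compound concentration 100 μM, eleven fivefold dilutions, in duplicate. Results given as IC50.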

EGFR wt = EGFR wt (Homo sapiens (Human), UniProt P00533); assay: Biochemical EGFR inhibition assay (TR-FRET, poly-GT substrate), EGFR wt
Method in brief: as §3

[4] = tested on: Ba/F3 cells driven by EGFR mutants; assay: Ba/F3 proliferation assay (CellTiter-Glo viability), EGFR mutant alleles; type: cell-based, murine; conditions: Mus musculus
Procedure: as §1, §2

[5] = molecular target: EGFR del19 T790M C797S protein in Ba/F3 cells (Homo sapiens, UniProt P00533, C797S/DEL746-750/T790M); assay: pEGFR assay (AlphaScreen Surefire, EGFR Tyr1068 phosphorylation); type: cell-based
Method in brief: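 Transduced Ba/F3 cells, puromycin-selected and grown IL-3 independent, were treated with compound at 60.000 cells/well for 4 h at 37° C. Lysis followed for 20 min at room temperature, and Tyr1068 phospho-EGFR in lysate was detected after 2 h dark incubation. Results are IC50 values.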

EGFR M+ NSCLC patients = conditions: cited from earlier work; for objective response rate: EGFR M+ NSCLC patients treated in 1st line
[6] = molecular target: EGFR (d746-750 T790M C797S) (Homo sapiens (Human), UniProt P00533, C797S/DEL746-750/T790M); assay: Biochemical EGFR inhibition assay (TR-FRET, poly-GT substrate), EGFR d746-750 T790M C797S
Procedure: Biochemical EGFR Inhibition Assays
Initially, the inhibitory effect of compounds according to the invention is measured in biochemical assays which measure the phosphorylation activity of EGFR enzyme forms on poly-GT substrate in the presence of different concentrations of ATP (5 μM and 100 μM final assay concentration).
The following enzyme forms of EGFR are representative examples that can be used in these assays at the given concentrations:
For the chosen highest assay concentration of 100 μM, 150 nL of compound solution is transferred from a 10 mM DMSO compound stock solution. A series of eleven fivefold dilutions per compound is transferred to the assay plate, compound dilutions are tested in duplicates. DMSO is added as backfill to a total volume of 150 nL. The assay runs on a fully automated robotic system.
These biochemical EGFR enzyme form compound dose-response assays quantify the kinase activity via phosphorylation of a tagged poly-GT substrate. The results of the assay are provided as IC50 values.

[7] = tested on: EGFR M+ T790M-positive NSCLC patients; conditions: 2nd line, cited from earlier work
[8] = read-out: LR_TM_CS (5 μM ATP) IC50, 5 μM ATP
[9] = read-out: LR_TM_CS (100 μM ATP) IC50, 100 μM ATP
[10] = read-out: wt (5 μM ATP) IC50, 5 μM ATP
[11] = read-out: wt (100 μM ATP) IC50, 100 μM ATP
[12] = BaF3, Ba/F3 EGFR L858R C797S, read-out: IC50 EGFR L858R C797S
[13] = BaF3, Ba/F3 EGFR L858R T790M C797S, read-out: IC50 EGFR L858R T790M C797S
[14] = BaF3, Ba/F3 EGFR L858R T790M, read-out: IC50 EGFR L858R T790M
[15] = BaF3, Ba/F3 EGFR L858R, read-out: IC50 EGFR L858R
[16] = BaF3, Ba/F3 EGFR del19, read-out: IC50 EGFR del19
[17] = BaF3, Ba/F3 EGFR del19 C797S, read-out: IC50 EGFR del19 C797S
[18] = BaF3, Ba/F3 EGFR del19 T790M C797S, read-out: IC50 EGFR del19 T790M C797S
[19] = BaF3, Ba/F3 EGFR del19 T790M, read-out: IC50 EGFR del19 T790M

EGFR del19 T790M C797S protein in Ba/F3 cells, sequence (P00533 with tags, fused parts or gaps C797S/DEL746-750/T790M limits assumed): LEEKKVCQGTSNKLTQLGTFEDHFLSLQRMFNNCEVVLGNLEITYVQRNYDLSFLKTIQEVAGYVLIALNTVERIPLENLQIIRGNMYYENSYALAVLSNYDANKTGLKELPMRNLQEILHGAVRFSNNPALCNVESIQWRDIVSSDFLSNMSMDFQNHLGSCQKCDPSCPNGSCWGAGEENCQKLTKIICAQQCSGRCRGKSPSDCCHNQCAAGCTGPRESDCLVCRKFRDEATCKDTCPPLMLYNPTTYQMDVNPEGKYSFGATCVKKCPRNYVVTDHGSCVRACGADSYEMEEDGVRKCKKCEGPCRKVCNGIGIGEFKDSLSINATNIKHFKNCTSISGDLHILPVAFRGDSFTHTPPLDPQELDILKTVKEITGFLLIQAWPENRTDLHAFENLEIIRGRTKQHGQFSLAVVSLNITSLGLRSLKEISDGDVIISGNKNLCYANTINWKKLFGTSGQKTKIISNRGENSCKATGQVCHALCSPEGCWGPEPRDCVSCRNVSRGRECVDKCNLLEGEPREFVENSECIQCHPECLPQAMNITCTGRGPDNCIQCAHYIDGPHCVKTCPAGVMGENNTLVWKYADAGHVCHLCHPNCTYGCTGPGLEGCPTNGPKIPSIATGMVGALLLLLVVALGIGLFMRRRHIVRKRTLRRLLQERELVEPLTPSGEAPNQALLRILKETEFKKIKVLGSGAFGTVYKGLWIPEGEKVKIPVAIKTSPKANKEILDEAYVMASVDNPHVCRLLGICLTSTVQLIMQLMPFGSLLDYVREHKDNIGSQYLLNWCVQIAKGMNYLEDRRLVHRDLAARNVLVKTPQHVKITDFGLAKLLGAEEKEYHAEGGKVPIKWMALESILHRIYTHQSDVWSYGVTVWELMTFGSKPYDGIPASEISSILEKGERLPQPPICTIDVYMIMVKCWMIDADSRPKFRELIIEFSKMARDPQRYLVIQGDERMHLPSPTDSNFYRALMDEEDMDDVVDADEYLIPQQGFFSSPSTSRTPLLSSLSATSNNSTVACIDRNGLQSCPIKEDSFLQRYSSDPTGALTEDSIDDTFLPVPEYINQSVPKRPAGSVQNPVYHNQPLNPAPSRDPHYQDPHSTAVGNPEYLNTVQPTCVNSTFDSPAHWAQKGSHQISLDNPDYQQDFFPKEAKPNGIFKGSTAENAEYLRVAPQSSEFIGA
EGFR (mutated) 695-1022, T790M, C797S, L858R, sequence (P00533 695-1022 T790M/C797S/L858R): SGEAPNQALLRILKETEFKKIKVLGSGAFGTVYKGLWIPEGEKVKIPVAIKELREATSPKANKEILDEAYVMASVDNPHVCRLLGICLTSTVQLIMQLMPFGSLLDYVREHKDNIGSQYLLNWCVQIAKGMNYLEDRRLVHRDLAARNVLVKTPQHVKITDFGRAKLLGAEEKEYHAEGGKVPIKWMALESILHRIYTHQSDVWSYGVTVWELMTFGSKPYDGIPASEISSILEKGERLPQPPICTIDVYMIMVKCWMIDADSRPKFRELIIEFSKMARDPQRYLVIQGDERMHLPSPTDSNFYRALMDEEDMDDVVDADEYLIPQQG
EGFR (d746-750 T790M C797S), sequence (P00533 other isoform, or with tags, fused parts or gaps T790M/C797S/del 1-694/del 746-750 limits assumed): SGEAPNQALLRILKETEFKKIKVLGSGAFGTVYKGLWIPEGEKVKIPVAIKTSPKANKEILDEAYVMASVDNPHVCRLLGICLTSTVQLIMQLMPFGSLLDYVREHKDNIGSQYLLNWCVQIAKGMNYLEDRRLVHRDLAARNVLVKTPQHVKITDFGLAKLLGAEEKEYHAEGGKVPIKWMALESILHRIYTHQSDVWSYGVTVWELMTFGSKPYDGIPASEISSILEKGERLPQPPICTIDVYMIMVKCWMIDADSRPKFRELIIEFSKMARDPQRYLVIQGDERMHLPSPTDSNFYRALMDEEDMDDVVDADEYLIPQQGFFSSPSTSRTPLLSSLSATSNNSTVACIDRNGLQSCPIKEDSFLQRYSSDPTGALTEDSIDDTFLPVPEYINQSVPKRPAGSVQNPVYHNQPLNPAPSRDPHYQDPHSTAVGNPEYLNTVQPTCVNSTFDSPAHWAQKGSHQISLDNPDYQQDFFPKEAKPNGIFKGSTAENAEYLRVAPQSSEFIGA
EGFR wt, sequence (P00533 25-1210): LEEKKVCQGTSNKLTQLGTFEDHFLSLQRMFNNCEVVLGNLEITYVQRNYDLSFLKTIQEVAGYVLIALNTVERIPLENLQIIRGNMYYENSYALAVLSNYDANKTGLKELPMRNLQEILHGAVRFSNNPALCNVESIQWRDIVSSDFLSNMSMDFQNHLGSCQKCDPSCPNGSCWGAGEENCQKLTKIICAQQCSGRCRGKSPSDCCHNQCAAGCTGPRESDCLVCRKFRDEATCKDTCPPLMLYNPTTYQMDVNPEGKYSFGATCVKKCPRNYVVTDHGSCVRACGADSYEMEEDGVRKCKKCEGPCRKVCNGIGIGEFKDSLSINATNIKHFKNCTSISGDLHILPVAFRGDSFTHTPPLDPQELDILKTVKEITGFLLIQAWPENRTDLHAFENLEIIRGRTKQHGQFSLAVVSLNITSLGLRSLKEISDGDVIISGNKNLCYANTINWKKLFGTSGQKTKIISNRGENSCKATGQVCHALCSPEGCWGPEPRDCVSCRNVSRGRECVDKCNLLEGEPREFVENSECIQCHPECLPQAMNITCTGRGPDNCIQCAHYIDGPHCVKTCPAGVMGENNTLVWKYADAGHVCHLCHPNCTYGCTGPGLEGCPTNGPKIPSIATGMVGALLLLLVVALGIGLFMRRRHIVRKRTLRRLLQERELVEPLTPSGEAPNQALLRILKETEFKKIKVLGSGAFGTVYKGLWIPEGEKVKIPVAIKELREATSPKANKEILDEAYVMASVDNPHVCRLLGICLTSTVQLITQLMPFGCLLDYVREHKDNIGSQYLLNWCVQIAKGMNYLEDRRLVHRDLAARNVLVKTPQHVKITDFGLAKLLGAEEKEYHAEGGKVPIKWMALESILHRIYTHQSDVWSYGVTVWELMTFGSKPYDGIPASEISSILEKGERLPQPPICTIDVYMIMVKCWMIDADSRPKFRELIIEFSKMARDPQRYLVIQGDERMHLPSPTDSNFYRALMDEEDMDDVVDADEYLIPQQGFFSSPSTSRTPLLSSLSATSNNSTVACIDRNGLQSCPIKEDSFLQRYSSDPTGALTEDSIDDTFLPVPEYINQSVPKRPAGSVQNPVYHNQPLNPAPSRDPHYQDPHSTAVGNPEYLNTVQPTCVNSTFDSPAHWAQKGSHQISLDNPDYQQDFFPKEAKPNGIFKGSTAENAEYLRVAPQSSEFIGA

SMILES	IC50 [3, 8] [nM]	IC50 [3, 9] [nM]	IC50 (EGFR wt; [10]) [nM]	IC50 (EGFR wt; [11]) [nM]	IC50 [5] [nM]	IC50 ([6]; 100 μM ATP) [nM]	also measured
COc1cc2ncnc(Nc3ccc(F)c(Cl)c3)c2cc1NC(=O)/C=C/CN1CCCCC1 [dacomitinib, reference compound]							IC50 [1]: 0.64 nM
Cc1cc(C(=O)Nc2nc3cccc(Cl)c3n2[C@@H]2CCCCN(C(=O)/C=C/CN(C)C)C2)ccn1 [nazartinib, reference compound]							IC50 [1]: 95.1 nM; IC50 [2]: > 5000 nM
C#Cc1cccc(Nc2ncnc3cc(OCCOC)c(OCCOC)cc23)c1 [erlotinib]							objective response rate (EGFR M+ NSCLC patients): 60-85%
Cn1cc(-c2cc(C(=O)/N=c3\[nH]c4ccccc4n3C3CCCCC3)ccn2)cn1 [I-015]	0.8	10.5	125	114	9	2	IC50 [4, 12]: 290 nM; IC50 [4, 13]: 284 nM; IC50 [4, 14]: 408 nM; IC50 [4, 15]: 274 nM; IC50 [4, 16]: 45.8 nM; IC50 [4, 17]: 21.1 nM; IC50 [4, 18]: 47 nM; IC50 [4, 19]: 169 nM; IC50 [1]: 2220 nM; IC50 [2]: 6520 nM
Cn1cc(-c2cc(C(=O)/N=c3\[nH]c4ccccc4n3[C@H]3CC[C@@H](O)CC3)ccn2)cn1 [I-048]	0.4	5.7	32.3	1310	1		IC50 [4, 12]: 52.1 nM; IC50 [4, 13]: 48.2 nM; IC50 [4, 14]: 79.4 nM; IC50 [4, 15]: 39.2 nM; IC50 [4, 16]: 10.9 nM; IC50 [4, 17]: 9.1 nM; IC50 [4, 18]: 12 nM; IC50 [4, 19]: 32.9 nM; IC50 [1]: 540 nM; IC50 [2]: 7940 nM
CN1CCC(c2ccc3c(c2)[nH]/c(=N\C(=O)c2ccnc(-c4cnn5cccnc45)c2)n3CC(C)(C)O)CC1 [I-032]		3		366	1	0.6	
COC(=O)Cc1ccc2c(c1)[nH]/c(=N\C(=O)c1ccnc(-c3cccnc3)c1)n2CC(C)(C)O [I-054]		104		79700	7	4.1	
C=CC(=O)Nc1cc(Nc2nccc(-c3cn(C)c4ccccc34)n2)c(OC)cc1N(C)CCN(C)C [osimertinib]							objective response rate (EGFR M+ NSCLC patients): 60-85%; average duration until disease progression (EGFR M+ NSCLC patients; previously untreated EGFR M+ NSCLC patients): 19 months; patients responding to treatment ([7]; previously treated with earlier generation EGFR TKI): Approximately 70%; average duration until disease progression [7]: 10 months
Cc1c(-c2cc(C(=O)/N=c3\[nH]c4cc(N5CCN(C)CC5)ccc4n3CC(C)(C)O)ccn2)cnn1C [I-025]		113		7890	28	27.9	
Cc1c(-c2cc(C(=O)/N=c3\[nH]c4ccccc4n3C3CCCC3)ccn2)cnn1C [I-004]		38.5		1950	13	4.7	
CCCn1/c(=N/C(=O)c2ccnc(-c3cnn(C)c3)c2)[nH]c2ccccc21 [I-014]		146		> 100000	94	48.8	
Cc1ccc2[nH]/c(=N\C(=O)c3ccnc(-c4cnn(C)c4)c3)n(CC(C)(C)O)c2c1 [I-034]		196		3950	21	22.8	
CC(=O)N1CCC(c2ccc3c(c2)[nH]/c(=N\C(=O)c2ccnc(-c4cnn(C)c4C)c2)n3CC(C)(C)O)CC1 [I-026]		34.5		1150	7	4.4	
CN(C)Cc1ccc2c(c1)[nH]/c(=N\C(=O)c1ccnc(-c3cnn(C)c3)c1)n2CC(C)(C)O [I-029]		190		14800	58	72.4	
Cn1cc(-c2cc(C(=O)/N=c3\[nH]c4cc(C5CCCOC5)ccc4n3CC(C)(C)O)ccn2)cn1 (stereo not shown) [I-053]		94.1		5740	2	8.7	

The next lines start with results.

IC50 [3, 8] [nM]	IC50 [3, 9] [nM]	IC50 (EGFR wt; [10]) [nM]	IC50 (EGFR wt; [11]) [nM]	IC50 [5] [nM]	IC50 ([6]; 100 μM ATP) [nM]	SMILES	also measured
0.5	8.8	12.5	549	4		COc1ccccc1-c1cc(C(=O)/N=c2\[nH]c3cc(C)ccc3n2[C@H]2CC[C@@H](O)CC2)ccn1 [I-109]	IC50 [4, 12]: 51.5 nM; IC50 [4, 13]: 146 nM; IC50 [4, 14]: 177 nM; IC50 [4, 15]: 38.3 nM; IC50 [4, 16]: 9.1 nM; IC50 [4, 17]: 7 nM; IC50 [4, 18]: 23.5 nM; IC50 [4, 19]: 52.9 nM; IC50 [1]: 728 nM; IC50 [2]: 8650 nM
2		2050		5		Cc1cc(C(=O)/N=c2\[nH]c3ccc(CN4CCOCC4)cc3n2C2CCCCC2)cc(-c2cnn(C)c2)n1 [I-221]	IC50 ([6]; 5 μM ATP): 0.4 nM
0.6		318		5		Cc1cc(C(=O)/N=c2\[nH]c3ccc(CN4CCN(C)CC4)cc3n2[C@H]2CC[C@@H](O)CC2)cc(-c2cnn(C)c2)n1 [I-222]	IC50 ([6]; 5 μM ATP): 0.2 nM
1.8		2020		4		Cc1cc(C(=O)/N=c2\[nH]c3ccc(CN4CCOCC4)cc3n2[C@H]2CC[C@@H](O)CC2)cc(-c2cnn(C)c2)n1 [I-223]	IC50 ([6]; 5 μM ATP): 0.5 nM
0.8		108		2		Cn1cc(-c2cc(C(=O)/N=c3\[nH]c4ccccc4n3[C@H]3CCC[C@H](O)C3)ccn2)cn1 [I-137]	IC50 [4, 12]: 100 nM; IC50 [4, 13]: 137 nM; IC50 [4, 14]: 178 nM; IC50 [4, 15]: 91.6 nM; IC50 [4, 16]: 16.6 nM; IC50 [4, 17]: 8.7 nM; IC50 [4, 18]: 20.7 nM; IC50 [4, 19]: 72 nM; IC50 [1]: 2060 nM; IC50 [2]: 9060 nM
0.4		25.8		2		CC(=O)N1CCC(c2ccc3c(c2)[nH]/c(=N\C(=O)c2ccnc(-c4cnn(C)c4)c2)n3[C@H]2CC[C@@H](O)CC2)CC1 [I-219]	IC50 ([6]; 5 μM ATP): 0.1 nM
32.7		2860		59		Cn1cc(-c2cc(C(=O)/N=c3\[nH]c4ccccc4n3C3CCC[S+]([O-])C3)ccn2)cn1 (stereo not shown) [I-220]	IC50 ([6]; 5 μM ATP): 2 nM
0.4		162		2		Cc1cc(C(=O)/N=c2\[nH]c3ccc(C4CCN(C)CC4)cc3n2[C@H]2CC[C@@H](O)CC2)cc(-c2cnn(C)c2)n1 [I-225]	IC50 ([6]; 5 μM ATP): 0.2 nM
